The results in this text go back to article PMC3878488, “Biarsenical ligands bind to endogenous G-protein α-subunits and enable allosteric sensing of nucleotide binding” (BMC Biochemistry, 2013).

What all share (assay): F2FlAsH fluorescence anisotropy, nucleotide titration
Holding throughout (assay type): binding

For assay [1], the system named is T1, αsshort + βγM (F2FlAsH-labeled).
T1 construct: gene GNAS; wild-type alpha (Kerafast, purified by GST-Ric8 association), reconstituted with beta1 / StrepII- and CCKACC-tagged gamma2 from Sf9
The settings on record: pH 7.8, 28°C, 2 mM MgCl2, 1 mM EDTA, 6 h; 15 nM F2FlAsH allosteric label. An excerpt: F2FlAsH fluorescence anisotropy, nucleotide titration on αsshort + βγM (F2FlAsH-labeled)

The subject of assay [2] is T2, αolf + βγM (F2FlAsH-labeled).
T2 construct: gene GNAL; wild-type alpha (Kerafast, purified by GST-Ric8 association), reconstituted with beta1 / StrepII- and CCKACC-tagged gamma2 from Sf9
The settings on record: pH 7.8, 28°C, 2 mM MgCl2, 1 mM EDTA, 6 h; 15 nM F2FlAsH allosteric label. An excerpt: F2FlAsH fluorescence anisotropy, nucleotide titration on αolf + βγM (F2FlAsH-labeled)

Another assay deals with T3, αi3βγM (F2FlAsH-labeled).
T3 construct: gene GNAI3; wild-type alpha co-expressed in Sf9 with beta1 / StrepII- and CCKACC-tagged gamma2; nucleotide-depleted heterotrimer
The settings on record: pH 7.8, 28°C, 2 mM MgCl2, 1 mM EDTA, 2 h; 5 nM F2FlAsH allosteric label, ~40 nM nucleotide-depleted heterotrimer. An excerpt:
F2FlAsH fluorescence anisotropy, nucleotide titration on αi3βγM (F2FlAsH-labeled)

Assay [3] relates to T4, αslong + βγM (F2FlAsH-labeled).
T4 construct: gene GNAS; wild-type alpha (Kerafast, purified by GST-Ric8 association), reconstituted with beta1 / StrepII- and CCKACC-tagged gamma2 from Sf9
The conditions noted are these: pH 7.8, 28°C, 2 mM MgCl2, 1 mM EDTA, 6 h; 15 nM F2FlAsH allosteric label. An excerpt: F2FlAsH fluorescence anisotropy, nucleotide titration on αslong + βγM (F2FlAsH-labeled)

A further assay deals with T5, αi2βγM (F2FlAsH-labeled).
T5 construct: gene GNAI2; wild-type alpha co-expressed in Sf9 with beta1 / StrepII- and CCKACC-tagged gamma2; nucleotide-depleted heterotrimer
The settings on record: pH 7.8, 28°C, 2 mM MgCl2, 1 mM EDTA, 2 h; 5 nM F2FlAsH allosteric label, ~40 nM nucleotide-depleted heterotrimer. The text has this:
F2FlAsH fluorescence anisotropy, nucleotide titration on αi2βγM (F2FlAsH-labeled)

Assay [4] deals with T6, αq + βγM (F2FlAsH-labeled).
T6 construct: gene GNAQ; wild-type alpha (Kerafast, purified by GST-Ric8 association), reconstituted with beta1 / StrepII- and CCKACC-tagged gamma2 from Sf9
The settings on record: pH 7.8, 28°C, 2 mM MgCl2, 1 mM EDTA, 6 h; 15 nM F2FlAsH allosteric label. An excerpt:
F2FlAsH fluorescence anisotropy, nucleotide titration on αq + βγM (F2FlAsH-labeled)

In assay [5] the test system is T7, α13 + βγM (F2FlAsH-labeled).
T7 construct: gene GNA13; wild-type alpha (Kerafast, purified by GST-Ric8 association), reconstituted with beta1 / StrepII- and CCKACC-tagged gamma2 from Sf9
The conditions noted are these: pH 7.8, 28°C, 2 mM MgCl2, 1 mM EDTA, 14 h; 15 nM F2FlAsH allosteric label. The text has this: F2FlAsH fluorescence anisotropy, nucleotide titration on α13 + βγM (F2FlAsH-labeled)

A further assay relates to T8, αi1βγM (F2FlAsH-labeled).
T8 construct: gene GNAI1; wild-type alpha co-expressed in Sf9 with beta1 / StrepII- and CCKACC-tagged gamma2; nucleotide-depleted heterotrimer
The conditions noted are these: pH 7.8, 28°C, 2 mM MgCl2, 1 mM EDTA, 2 h; 5 nM F2FlAsH allosteric label, ~40 nM nucleotide-depleted heterotrimer. The text has this:
F2FlAsH fluorescence anisotropy, nucleotide titration on αi1βγM (F2FlAsH-labeled)

Consider `Nc1nc2c(ncn2[C@@H]2O[C@H](COP(=O)(O)OP(=O)(O)OP(O)(O)=S)[C@@H](O)[C@H]2O)c(=O)[nH]1` [GTPγS], for which the GTPγS in assay [1] was 7.06 ± 0.04 -log M; in assay [2] it was 6.43 ± 0.04 -log M; in the assay with αi3βγM (F2FlAsH-labeled), 7.87 ± 0.06 -log M; in assay [3] it was 7.47 ± 0.09 -log M; in the assay on αi2βγM (F2FlAsH-labeled), 8.02 ± 0.09 -log M; in assay [4] it was 6.27 ± 0.05 -log M. For the same compound, the GTPγS in assay [5] is 5.65 ± 0.13 -log M.
Turning to `Nc1nc2c(ncn2[C@@H]2O[C@H](COP(=O)(O)OP(=O)(O)NP(=O)(O)O)[C@@H](O)[C@H]2O)c(=O)[nH]1` [GppNHp], the GppNHp is on record as 6.42 ± 0.04 -log M in assay [1]; 8.08 ± 0.04 -log M in the assay with αi1βγM (F2FlAsH-labeled); 5.84 ± 0.05 -log M in assay [2]; 7.93 ± 0.07 -log M in the assay with αi3βγM (F2FlAsH-labeled); 6.56 ± 0.07 -log M in assay [3]; 7.84 ± 0.14 -log M in the assay with αi2βγM (F2FlAsH-labeled). Moreover, the GppNHp in assay [4] is given as 5.96 ± 0.07 -log M; in assay [5], 5.36 ± 0.14 -log M.
On to `Nc1nc2c(ncn2[C@@H]2O[C@H](COP(=O)(O)O)[C@@H](O)[C@H]2O)c(=O)[nH]1` [GMP], for which the GMP in assay [1] is < 3 -log M; in the assay with αi1βγM (F2FlAsH-labeled), 5.89 ± 0.12 -log M; in assay [2], < 3 -log M; with αi3βγM (F2FlAsH-labeled), 5.29 ± 0.13 -log M; in the assay on αi2βγM (F2FlAsH-labeled), 4.45 ± 0.07 -log M; in assay [4] it was < 3 -log M.
As to `Nc1nc2c(ncn2[C@@H]2O[C@H](COP(=O)(O)OP(=O)(O)O)[C@@H](O)[C@H]2O)c(=O)[nH]1` [GDP], the GDP in assay [1] is on record as 4.85 ± 0.05 -log M; in the assay with αi1βγM (F2FlAsH-labeled), 8.19 ± 0.16 -log M; in assay [2], 5.00 ± 0.03 -log M; with αi3βγM (F2FlAsH-labeled), 8.08 ± 0.10 -log M; in assay [3], 4.72 ± 0.18 -log M; in the assay on αi2βγM (F2FlAsH-labeled) it was 8.17 ± 0.13 -log M. In addition, the GDP is reported as 5.87 ± 0.06 -log M in assay [4] and 4.98 ± 0.23 -log M in assay [5].
